Measurements from the supplement of paper PMC10307832.

Experiments:
Assay in all cases: relative viability (nuclei count vs DMSO), 5 days (fraction); higher = more cells survive
NCI-H1975 = test system: NCI-H1975
Outline: (§1)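 Values are medians from duplicate plates. Each reflects relative viability, defined as the nuclei count of treated wells over that of vehicle wells. Lung cancer cell lines in 1536-well plates were pin-tool dosed one day after seeding with one drug alone or with a fixed anchor-drug dose plus five library-drug doses (not always all listed) in √10 steps, then fixed, stained and imaged at 4× after 5 days.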

LOU-NH91 = test system: LOU-NH91
Outline: as §1

NCI-H358 = test system: NCI-H358
Outline: as §1

NCI-H2342 = test system: NCI-H2342
Outline: as §1

LU99A = test system: LU99A
Outline: as §1

EKVX = test system: EKVX
Outline: as §1

BEN = test system: BEN
Outline: as §1

HOP-62 = test system: HOP-62
Outline: as §1

PC-3 [JPC-3] = test system: PC-3 [JPC-3]
Outline: as §1

NCI-H1437 = test system: NCI-H1437
Outline: as §1

SW 1573 = test system: SW 1573
Outline: as §1

201T = test system: 201T
Outline: as §1

NCI-H2087 = test system: NCI-H2087
Outline: as §1

LCLC-97TM1 = test system: LCLC-97TM1
Outline: as §1

HCC-44 = test system: HCC-44
Outline: as §1

EPLC-272H = test system: EPLC-272H
Outline: as §1

COR-L 105 = test system: COR-L 105
Outline: as §1

NCI-H2085 = test system: NCI-H2085
Outline: as §1

NCI-H2126 = test system: NCI-H2126
Outline: as §1

NCI-H1666 = test system: NCI-H1666
Outline: as §1

NCI-H647 = test system: NCI-H647
Outline: as §1

NCI-H1395 = test system: NCI-H1395
Outline: as §1

HCC-827 = test system: HCC-827
Outline: as §1

H3255 = test system: H3255
Outline: as §1

Clc1ccc(Nc2nnc(Cc3ccncc3)c3ccccc23)cc1 [Vatalanib] + O=C(CCCCCCC(=O)Nc1ccccc1)NO [Vorinostat] (partner 1 µM)
relative viability (NCI-H1975; first compound 0.04 µM): 0.674 | relative viability (NCI-H1975; first compound 0.1265 µM): 0.691 | relative viability (NCI-H1975; first compound 0.4 µM): 0.726 | relative viability (NCI-H1975; first compound 1.265 µM): 0.66 | relative viability (NCI-H1975; first compound 4 µM): 0.71 | relative viability (LOU-NH91; first compound 0.04 µM): 0.939 | relative viability (LOU-NH91; first compound 0.1265 µM): 0.874 | relative viability (LOU-NH91; first compound 0.4 µM): 0.955 | relative viability (LOU-NH91; first compound 1.265 µM): 0.783 | relative viability (LOU-NH91; first compound 4 µM): 0.882 | relative viability (NCI-H358; first compound 0.04 µM): 0.683 | relative viability (NCI-H358; first compound 0.1265 µM): 0.719 | relative viability (NCI-H358; first compound 0.4 µM): 0.686 | relative viability (NCI-H358; first compound 1.265 µM): 0.713 | relative viability (NCI-H358; first compound 4 µM): 0.632 | relative viability (NCI-H2342; first compound 0.04 µM): 0.747 | relative viability (NCI-H2342; first compound 0.1265 µM): 0.714 | relative viability (NCI-H2342; first compound 0.4 µM): 0.741 | relative viability (NCI-H2342; first compound 1.265 µM): 0.762 | relative viability (NCI-H2342; first compound 4 µM): 0.69 | relative viability (LU99A; first compound 0.04 µM): 0.554 | relative viability (LU99A; first compound 0.1265 µM): 0.544 | relative viability (LU99A; first compound 0.4 µM): 0.535 | relative viability (LU99A; first compound 1.265 µM): 0.472 | relative viability (LU99A; first compound 4 µM): 0.467 | relative viability (EKVX; first compound 0.04 µM): 0.773 | relative viability (EKVX; first compound 0.1265 µM): 0.767 | relative viability (EKVX; first compound 0.4 µM): 0.831 | relative viability (EKVX; first compound 1.265 µM): 0.655 | relative viability (EKVX; first compound 4 µM): 0.665 | relative viability (BEN; first compound 0.04 µM): 0.57 | relative viability (BEN; first compound 0.1265 µM): 0.625 | relative viability (BEN; first compound 0.4 µM): 0.594 | relative viability (BEN; first compound 1.265 µM): 0.561 | relative viability (BEN; first compound 4 µM): 0.61 | relative viability (HOP-62; first compound 0.04 µM): 0.6 | relative viability (HOP-62; first compound 0.1265 µM): 0.557 | relative viability (HOP-62; first compound 0.4 µM): 0.758 | relative viability (HOP-62; first compound 1.265 µM): 0.597 | relative viability (HOP-62; first compound 4 µM): 0.642 | relative viability (PC-3 [JPC-3]; first compound 0.04 µM): 0.837 | relative viability (PC-3 [JPC-3]; first compound 0.1265 µM): 0.736 | relative viability (PC-3 [JPC-3]; first compound 0.4 µM): 0.721 | relative viability (PC-3 [JPC-3]; first compound 1.265 µM): 0.342 | relative viability (PC-3 [JPC-3]; first compound 4 µM): 0.688 | relative viability (NCI-H1437; first compound 0.04 µM): 0.836 | relative viability (NCI-H1437; first compound 0.1265 µM): 0.851 | relative viability (NCI-H1437; first compound 0.4 µM): 0.88 | relative viability (NCI-H1437; first compound 1.265 µM): 0.616 | relative viability (NCI-H1437; first compound 4 µM): 0.673 | relative viability (SW 1573; first compound 0.1265 µM): 0.812 | relative viability (SW 1573; first compound 0.4 µM): 1.4 | relative viability (SW 1573; first compound 1.265 µM): 0.839 | relative viability (SW 1573; first compound 4 µM): 0.624 | relative viability (201T; first compound 0.04 µM): 0.995 | relative viability (201T; first compound 0.1265 µM): 1.01 | relative viability (201T; first compound 0.4 µM): 1.06 | relative viability (201T; first compound 1.265 µM): 1.01 | relative viability (201T; first compound 4 µM): 1.07 | relative viability (NCI-H2087; first compound 0.04 µM): 0.836 | relative viability (NCI-H2087; first compound 0.1265 µM): 0.6 | relative viability (NCI-H2087; first compound 0.4 µM): 0.595 | relative viability (NCI-H2087; first compound 1.265 µM): 0.701 | relative viability (NCI-H2087; first compound 4 µM): 0.533 | relative viability (LCLC-97TM1; first compound 0.04 µM): 0.601 | relative viability (LCLC-97TM1; first compound 0.1265 µM): 0.613 | relative viability (LCLC-97TM1; first compound 0.4 µM): 0.804 | relative viability (LCLC-97TM1; first compound 1.265 µM): 0.65 | relative viability (LCLC-97TM1; first compound 4 µM): 0.649 | relative viability (HCC-44; first compound 0.04 µM): 1.11 | relative viability (HCC-44; first compound 0.1265 µM): 1.08 | relative viability (HCC-44; first compound 0.4 µM): 1.09 | relative viability (HCC-44; first compound 1.265 µM): 1.04 | relative viability (HCC-44; first compound 4 µM): 1.07 | relative viability (EPLC-272H; first compound 0.04 µM): 0.438 | relative viability (EPLC-272H; first compound 0.1265 µM): 0.702 | relative viability (EPLC-272H; first compound 0.4 µM): 0.499 | relative viability (EPLC-272H; first compound 1.265 µM): 0.617 | relative viability (EPLC-272H; first compound 4 µM): 0.561 | relative viability (COR-L 105; first compound 0.04 µM): 0.846 | relative viability (COR-L 105; first compound 0.1265 µM): 0.806 | relative viability (COR-L 105; first compound 0.4 µM): 0.829 | relative viability (COR-L 105; first compound 1.265 µM): 0.905 | relative viability (COR-L 105; first compound 4 µM): 0.794 | relative viability (NCI-H2085; first compound 0.04 µM): 0.868 | relative viability (NCI-H2085; first compound 0.1265 µM): 0.796 | relative viability (NCI-H2085; first compound 0.4 µM): 0.852 | relative viability (NCI-H2085; first compound 1.265 µM): 0.747 | relative viability (NCI-H2085; first compound 4 µM): 0.702 | relative viability (NCI-H2126; first compound 0.04 µM): 0.704 | relative viability (NCI-H2126; first compound 0.1265 µM): 0.835 | relative viability (NCI-H2126; first compound 0.4 µM): 0.837 | relative viability (NCI-H2126; first compound 1.265 µM): 0.766 | relative viability (NCI-H2126; first compound 4 µM): 0.691 | relative viability (NCI-H1666; first compound 0.04 µM): 0.997 | relative viability (NCI-H1666; first compound 0.1265 µM): 1.02 | relative viability (NCI-H1666; first compound 0.4 µM): 1.03 | relative viability (NCI-H1666; first compound 1.265 µM): 1.04 | relative viability (NCI-H1666; first compound 4 µM): 0.908 | relative viability (NCI-H647; first compound 0.04 µM): 0.658 | relative viability (NCI-H647; first compound 0.1265 µM): 0.685 | relative viability (NCI-H647; first compound 0.4 µM): 0.87 | relative viability (NCI-H647; first compound 1.265 µM): 0.641 | relative viability (NCI-H647; first compound 4 µM): 0.632 | relative viability (NCI-H1395; first compound 0.04 µM): 0.71 | relative viability (NCI-H1395; first compound 0.1265 µM): 0.55 | relative viability (NCI-H1395; first compound 0.4 µM): 0.6 | relative viability (NCI-H1395; first compound 4 µM): 0.726 | relative viability (HCC-827; first compound 0.04 µM): 0.767 | relative viability (HCC-827; first compound 0.1265 µM): 0.953 | relative viability (HCC-827; first compound 1.265 µM): 0.741 | relative viability (HCC-827; first compound 4 µM): 0.86 | relative viability (H3255; first compound 0.04 µM): 0.744 | relative viability (H3255; first compound 0.1265 µM): 0.832 | relative viability (H3255; first compound 0.4 µM): 0.714 | relative viability (H3255; first compound 1.265 µM): 0.746 | relative viability (H3255; first compound 4 µM): 0.689
